ChEMBL document CHEMBL1157539, “Thousands of chemical starting points for antimalarial lead identification” (Nature, 2010)

Each molecule was assayed on Plasmodium falciparum (assay: GSK_TCMDC: Inhibition of Plasmodium falciparum 3D7 in whole erythrocytes, using parasite LDH activity as an index of growth.). Conditions: Plasmodium falciparum, 3D7.
Assay type: functional, organism-based
`COc1cccc2c(N/N=C/c3ccccc3[N+](=O)[O-])cc(C)nc12` was tested, and the XC50 was 0.424 µM.
With `CCN(CC)CCN(Cc1ccc(-c2ccc(C(F)(F)F)cc2)cc1)C(=O)Cn1cc(Cc2cnn(C)c2)c(=O)n2nc(-c3ccccc3)cc12` the XC50 was 0.73 µM.
`CCCCCOc1ccc(/N=C2\C=C(O)C(=O)c3ccccc32)cc1` showed an XC50 of 0.243 µM.
`CS(=O)(=O)c1ccc(-c2nc(NCC3CCCCC3)cc(C(F)(F)F)n2)cc1` showed an XC50 of 0.667 µM.
With `COc1cccc2c(Nc3ccccc3C)nc(Nc3ccccc3C)nc12` the XC50 was 0.679 µM.
`OC(CNCc1ccccc1OCc1ccccc1)c1cc(C(F)(F)F)cc(C(F)(F)F)c1` (centres undefined) gave an XC50 of 0.134 µM.
`CCc1cn2c3c(cc(C(=O)N[C@@H](Cc4ccccc4)[C@H](O)CNCc4ccccc4)cc13)N(C)S(=O)(=O)CC2` was tested, and the XC50 was 0.664 µM.
`CN1CCC(NCc2ccc(-c3ccc(Cl)cc3)cc2)CC1` gave an XC50 of 0.75 µM.
For `CCc1cn2c3c(cc(C(=O)N[C@@H](Cc4ccccc4)[C@H](O)CNC4CCOCC4)cc13)N(CC(F)(F)F)S(=O)(=O)CC2`, the XC50 was 0.0296 µM.
Molecule `CC(C)c1cc(Oc2c(I)cc(CCNCc3ccccc3)cc2I)ccc1O` has an XC50 of 0.536 µM.
In the case of `COCCN1CCC(NCC(C)(C)c2nc(-c3ccc(Cl)c(O)c3)c(-c3ccncc3)[nH]2)CC1`, the XC50 is reported as 0.717 µM.
`COc1ccc2nccc([C@@H](O)CN3CCC(NCc4nc5cc(F)cc(F)c5[nH]4)CC3)c2c1` gave an XC50 of 0.573 µM.
`CCN1CCN(Cc2c(O)ccc3c(=O)c(Oc4cc(C)cc(C)c4)c(C(F)(F)F)oc23)CC1` gave an XC50 of 0.773 µM.
For `CC[C@H](C)[C@H](NC(=O)[C@H](CC1CCCCC1)[C@H](CC)N(O)C=O)C(=O)Nc1ccccn1`, the XC50 was 0.176 µM.
With `COc1cc2nc(N3CCN(C(=O)c4ccc(N(C(=O)OC(C)(C)C)C(=O)OC(C)(C)C)cc4)CC3)nc(N)c2cc1OC` the XC50 was 1 µM.
For `CCCCOC(=O)C1=C(C)NC2=C(C(=O)CC(c3ccc(OC)c(OC)c3)C2)C1c1ccc(O)cc1` (centres undefined), the XC50 was 0.834 µM.
In the case of `COc1ccc(NC(=O)CSc2nc(-c3ccccc3Cl)ns2)cc1OC`, the XC50 is reported as 0.759 µM.
In the case of `O=C(NCc1ccc(C(=O)N2CCC(N3CCCCC3)CC2)cc1)c1cc(-c2cccc(C(F)(F)F)c2)ccc1O`, the XC50 is reported as 0.817 µM.
Work on `CC(C)Cn1cc(C2CCN(CCN3CCC(CNC(=O)c4ccc(NC(=O)c5ccc(Cl)cc5)cc4)CC3)CC2)c2ccccc21` yielded an XC50 of 0.251 µM.
For `O=C(Nc1ccc(-c2ccc(-c3nc4ccccc4[nH]3)s2)cc1)c1ccncc1`, the XC50 was 0.789 µM.
In the case of `O=S(=O)(c1ccccc1)C1CC1`, the XC50 is reported as 0.724 µM.
In the case of `Clc1ccc2c(NCc3ccccc3)ccnc2c1`, the XC50 is reported as 0.339 µM.
`CC(C)(C)c1ccc(CNC(=O)c2ccc(CNC3CCC(N)CC3)s2)cc1` (centres undefined) gave an XC50 of 0.531 µM.
In the case of `O=C(Nc1cccc(OCc2ccccc2)c1)c1ccc(CN2CCC(Cc3ccccc3)CC2)cc1`, the XC50 is reported as 0.85 µM.
Molecule `Nc1nc(N)c2cc(Cc3ccccc3Cl)cnc2n1` has an XC50 of 0.106 µM.
Molecule `COc1cc(OC)cc(C(=O)Nc2cccc(-c3cn4ccc(C)cc4n3)c2)c1` has an XC50 of 0.994 µM.
`COc1cccc2c(NN=Cc3cccc(Cl)c3)cc(C)nc12` gave an XC50 of 0.709 µM.
`CC(=O)Nc1ccc(C2NC(=O)NC(c3ccccc3)=C2c2nc3ccccc3s2)cc1` (centres undefined) gave an XC50 of 1.11 µM.
Work on `COc1cccc2cc(C(=O)N[C@@H](CC(C)C)C(=O)N[C@H](C=NN3CCCC3=O)Cc3ccccc3)oc12` yielded an XC50 of 0.557 µM.
`Nc1nccc2ccc(-c3ccc(OCc4ccccc4)cc3)cc12` was tested, and the XC50 was 0.223 µM.
Work on `CN(C)c1nc(NN=Cc2cc(Cl)ccc2O)nc(Nc2ccc(F)cc2)n1` yielded an XC50 of 0.837 µM.
In the case of `Nc1ccc(-c2ccc(NC(=O)Nc3ccccc3)cc2)cn1`, the XC50 is reported as 0.92 µM.
`COc1ccc2nccc([C@@H](O)CN3CCC(NC(=O)c4ccc(-c5ccccc5)s4)CC3)c2c1` was tested, and the XC50 was 0.31 µM.
With `CN1CCC(NCc2ccc(-c3ccc(C(F)(F)F)cc3)cc2)CC1` the XC50 was 0.798 µM.
`CC(C)(C)c1ccc(S(=O)(=O)Nc2ccccc2N2CCOCC2)cc1` showed an XC50 of 0.683 µM.
For `CCCc1cc(OCCCOc2ccccc2)ccc1OCCCON1C(=N)N=C(N)NC1(C)C`, the XC50 was 0.0032 µM.
`COc1cccc(C(=O)Nc2ccc(Oc3ccc(Cl)cc3)cc2)c1` gave an XC50 of 0.956 µM.
For `Nc1ccncc1C(=O)NCCCCN1CCN(c2nsc3ccccc23)CC1`, the XC50 was 0.803 µM.
`CNC(=O)c1ccc2[nH]cc(C3CCN(CC4CCN(C(=O)/C=C/c5ccc(Cl)c(Cl)c5)CC4)CC3)c2c1` gave an XC50 of 1.52 µM.
`Cc1cccc(/C=C/C(=O)NC2CCC(N3CCC(c4ccccc4C)CC3)CC2)c1` (centres undefined) was tested, and the XC50 was 1.11 µM.
`c1ccc(C(c2ccccc2)N2CCC(NCc3ccc(OCCCN4CCCCC4)cc3)CC2)cc1` gave an XC50 of 0.557 µM.
`O=C(NCC1CCN(Cc2cccc(C(F)(F)F)c2)C1)c1cc(-c2cccc(Cl)c2)cs1` (centres undefined) was tested, and the XC50 was 0.803 µM.
`CCCN(CCC)CCCCC(C)Nc1c2ccc(Cl)cc2nc2ccc(OC)cc12` (centres undefined) was tested, and the XC50 was 0.137 µM.
For `CCCc1ccc(N2C(N)=NC(N)=NC2(C)C)cc1`, the XC50 was 0.0284 µM.
`Cc1ccc2c(c1)NCC21CCN(C[C@@H](O)C2CCN(c3ccnc(Cl)c3)CC2)CC1C` (some centres undefined) was tested, and the XC50 was 0.94 µM.
In the case of `FC(F)(F)c1ccc2[nH]c(-c3cccc(-c4ccc(CNCc5cnn(-c6ccccc6)n5)cc4)c3)nc2c1`, the XC50 is reported as 1.33 µM.
With `COc1cc2c(cc1C=CC(=O)N1CCN(Cc3nc(O)c4c(C)c(C)sc4n3)CC1)OC(C)C2` (centres undefined) the XC50 was 1.02 µM.
`CC(CN1CCN(C)CC1)C(=O)Nc1cccc(-c2cccc(-c3nc4cc(F)ccc4[nH]3)c2)c1` (centres undefined) showed an XC50 of 0.274 µM.
With `COc1ccc(CNC(=O)NC2CCN(c3ccnc(Nc4cc(OC)c(OC)c(OC)c4)n3)C2)cc1` (centres undefined) the XC50 was 0.946 µM.
`N=C(Nc1cccc(Cc2ccccc2)n1)Nc1ncccn1` gave an XC50 of 0.928 µM.
Molecule `c1cc(OCCN2CCCC2)ccc1CNC1CCN(CC2CCCCC2)CC1` has an XC50 of 0.845 µM.
`COc1cccc(OC)c1CN1CCC(N(C)CCCCCCCCN2CCC(OC(=O)Nc3ccccc3-c3ccccc3)CC2)CC1` was tested, and the XC50 was 0.458 µM.
`O=C(/C=C/c1ccc(Cl)cc1)NCCCCCN1CCCN(C(=O)Nc2cccc(Cl)c2)CC1` showed an XC50 of 1 µM.
For `Nc1nccc2ccc(-c3ccc(NC(=O)Nc4cc(C(F)(F)F)ccc4F)cc3)cc12`, the XC50 was 0.0863 µM.
Work on `CNCc1ccc(-c2cccc(CNCc3ccc(-c4ccccc4)cc3)c2)c(C(=O)OC)c1` yielded an XC50 of 0.98 µM.
In the case of `Cc1ccc(/C=C/C(=O)NC2CCC(N3CCC(c4ccccc4C)CC3)CC2)cc1F` (centres undefined), the XC50 is reported as 1.04 µM.
With `Cn1cc(CCNc2ccnc(NCCc3coc4ccccc34)n2)c2ccccc21` the XC50 was 1.06 µM.
`Cc1cc(N[C@@H](CC(C)C)C(=O)NC2CCCC2)nc(NCc2ccccc2C)n1` was tested, and the XC50 was 1.34 µM.
In the case of `CS(=O)(=O)c1ccc(Nc2ncc(-c3ccc(S(C)(=O)=O)cc3)c(OCC(F)(F)F)n2)cc1`, the XC50 is reported as 0.401 µM.
`O=C(NCc1ccc(Cl)cc1)c1ccc(CN2CCCN(Cc3cccc(O)c3)CC2)cc1` was tested, and the XC50 was 1.17 µM.
In the case of `O=c1ccc2ccc(F)c3c2n1CC3CN1CCC(NCc2ccc(-c3cccc(Cl)c3)nc2)CC1` (centres undefined), the XC50 is reported as 0.992 µM.
In the case of `CCCCc1cc(NCC)nc(Nc2ccc(F)cc2)n1`, the XC50 is reported as 0.79 µM.
Work on `Cc1ccc(Nc2nccc(NCC(O)c3cccc(C(F)(F)F)c3)n2)cc1` (centres undefined) yielded an XC50 of 0.677 µM.
`O=c1cc(NCCCNCc2cc(Cl)cc(Cl)c2OCc2ccc(Cl)cc2)[nH]c2ccccc12` was tested, and the XC50 was 0.693 µM.
Molecule `Cc1cc2nc(-c3cc(Br)ccc3O)c(-c3cc(Br)ccc3O)nc2cc1C` has an XC50 of 0.853 µM.
Molecule `CCCC(=O)Nc1ccc(OCCCN(Cc2ccccc2F)c2ccc(C#N)c(C(F)(F)F)c2)cc1` has an XC50 of 0.595 µM.
For `COc1cc(Cl)c(C)cc1N(Cc1ccccc1-c1ccccc1)S(=O)(=O)c1ccc(C(F)(F)F)cc1`, the XC50 was 1.05 µM.
Work on `COc1cc2c(cc1NS(=O)(=O)c1ccc(OCc3ccc(Br)cc3)cc1)CCN(C1CCC1)CC2` yielded an XC50 of 0.843 µM.
`COc1cc2nc(NCCCN3CCCCC3)nc(NCc3ccccc3)c2cc1OC` showed an XC50 of 0.998 µM.
`N#Cc1cccc(NC(=O)Nc2ccc3c(c2)CN(Cc2c[nH]c4ncccc24)C3)c1` showed an XC50 of 0.8 µM.
Molecule `O=S(=O)(c1ccc(OCc2ccc(Cl)cc2)cc1)c1cc2c(c(-c3ccc(F)cc3)c1)CCN(CC1CC1)CC2` has an XC50 of 1.12 µM.
With `CCCCNCc1ccc(-c2nc(CN(CCCn3ccnc3)C(=O)Nc3ccc(CC)cc3)cs2)cc1` the XC50 was 0.83 µM.
Molecule `Cc1cccc2nc(-c3cccc(-c4ccc(NC(=O)c5cccnc5)cc4)c3)[nH]c12` has an XC50 of 0.594 µM.
Molecule `O=[N+]([O-])c1ccccc1/C=N/Nc1ccnc2cc(Cl)ccc12` has an XC50 of 0.876 µM.
`CCCCCCNc1cc(C)nc2ccc(OC)cc12` gave an XC50 of 0.552 µM.
For `COc1c(Br)cc(Br)cc1-c1ccc(CN2CC3CCC2CC3)[nH]1`, the XC50 was 0.693 µM.
With `Cc1cccc2nc(-c3ccc(-c4ccc(CN5CCN(c6cnccn6)CC5)cc4)s3)[nH]c12` the XC50 was 0.75 µM.
With `O=C(Nc1cc(Cl)cc(Cl)c1)N[C@H]1CCN(CCCCCNC(=O)C2CC2c2ccc(Cl)c(Cl)c2)C1` (some centres undefined) the XC50 was 0.856 µM.
`COc1cc(CNCCCNc2nc3ncccc3[nH]2)c2[nH]cc(Br)c2c1` was tested, and the XC50 was 1.16 µM.
With `O=S(=O)(NC1CCN(c2ccnc3ccccc23)C1)c1ccc(OC(F)(F)F)cc1` (centres undefined) the XC50 was 1.08 µM.
Work on `CC(=O)Nc1ncc(C(=O)Nc2ccc(-c3cccc(-c4nc5cc(F)ccc5[nH]4)c3)cc2)s1` yielded an XC50 of 0.354 µM.
For `Cc1ccc(NC(=O)NC2CCN(c3ccnc4cc(Cl)ccc34)C2)cc1` (centres undefined), the XC50 was 0.149 µM.
With `Cc1ccc(Nc2cc(C)nn2-c2nc(C)cc(O)n2)cc1` the XC50 was 0.864 µM.
`Cc1ccc(-n2c(Sc3ncnc4sccc34)nnc2N2CCCC2)cc1` was tested, and the XC50 was 0.263 µM.
`O=C(Nc1ccc(OC2CCN(Cc3ccccc3)CC2)c(Cl)c1)c1ccco1` was tested, and the XC50 was 0.408 µM.
Molecule `O=C(NCc1cccc2ccccc12)C(c1cc2ccccc2o1)N1CCN(C(c2ccccc2)c2ccccc2)CC1` (centres undefined) has an XC50 of 0.667 µM.
For `CC1(CCCCN2CCC(Cc3ccccc3)CC2)C(=O)Nc2ccccc21` (centres undefined), the XC50 was 0.855 µM.
Molecule `Cc1cccc2nc(-c3cccc(-c4cccc(NC(=O)c5cccnc5)c4)c3)[nH]c12` has an XC50 of 0.228 µM.
`CCOC(=O)c1[nH]c2ccc(F)cc2c1NC(=O)CN1CCN(c2cccc(C(F)(F)F)c2)CC1` showed an XC50 of 0.458 µM.
Work on `O=C(Nc1ccc(N2CCN(Cc3ccccc3)CC2)cc1)c1cccs1` yielded an XC50 of 0.769 µM.
Molecule `CC(C)c1ccc(CN2CCC(NC(=O)c3ccc(-c4cccc(F)c4)s3)CC2)cc1` has an XC50 of 1.33 µM.
For `O=C(O)Cc1ccc(-c2c[nH]c3ncc(-c4cccc5ncccc45)cc23)cc1`, the XC50 was 0.847 µM.
`CN1CCC(C(=O)Nc2cccc(-c3ccc(-c4nc5cc(F)ccc5[nH]4)cc3)c2)CC1` gave an XC50 of 0.706 µM.
For `Cc1cc(C=C2SC(=Nc3ccccc3)N(C3CCCC3)C2=O)c(C)n1-c1ccc(Cl)cc1`, the XC50 was 0.876 µM.
For `CN1CCC(OC(=O)c2cc3cc(-c4ccccc4)ccc3n2S(=O)(=O)c2ccccc2)CC1`, the XC50 was 1.09 µM.
`Cc1ccc2[nH]c(-c3cc(-c4cccc(C#N)c4)cnc3N)nc2c1` gave an XC50 of 0.117 µM.
`COc1cc(NC(=O)c2cccs2)c(C(=O)NCc2ccc(C)cc2)cc1OC` gave an XC50 of 1.36 µM.
`O=C(Nc1ccc(Cl)cc1C(=O)Nc1ccncc1)c1ccc(Cl)cc1Cl` was tested, and the XC50 was 0.611 µM.
Molecule `Nc1nc(N)c2c(n1)CCC(c1ccccc1)C2` (centres undefined) has an XC50 of 1.01 µM.
